Reference: patent US12077503B2, “Substituted cyclic amides and their use as herbicides” (FMC CORPORATION, priority 2015, dated 2024)

How the values were obtained:
Format in all cases: in vivo
[1] = tested on: barnyardgrass (Echinochloa crus-galli); experiment: Test G Pre-Emergence Protocol; conditions: Echinochloa crus-galli, pre-emergence, 312 h, evaluated after 13 days; for pest or weed control at 15.625 g/ha: 15.625 g ai/ha; for pest or weed control at 15.625 g/ha / pest or weed control at 250 g/ha: read-out: Barnyardgrass damage rating (100=total damage to plant; 0=no damage to plant); for pest or weed control at 62.5 g/ha: 62.5 g ai/ha, 100=total damage to plant, 0=no damage to plant, read-out: Barnyardgrass damage rating; for pest or weed control at 250 g/ha: 250 g ai/ha
Outline: (§1)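 Pre-emergence spray, 15.625/62.5/250 g/ha, vehicle acetone:water 50:50 + 0.5% Tween 20, applied 1 d after sowing. Glasshouse 24/16° C, 14 h light, 65% RH, watered twice daily. Visual damage rating at 13 d, 0–100 scale.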

corn (Zea mays) [2] = experiment: Test G Pre-Emergence Protocol; conditions: Zea mays, pre-emergence, 312 h, evaluated after 13 days; for plant injury at 15.625 g/ha: 15.625 g ai/ha; for plant injury at 15.625 g/ha / plant injury at 250 g/ha: read-out: Corn damage rating (100=total damage to plant; 0=no damage to plant); for plant injury at 62.5 g/ha: 62.5 g ai/ha, 100=total damage to plant, 0=no damage to plant, read-out: Corn damage rating; for plant injury at 250 g/ha: 250 g ai/ha
Outline: as §1

[3] = tested on: giant foxtail (Setaria faberi); experiment: Test G Pre-Emergence Protocol; conditions: Setaria faberi, pre-emergence, 312 h, evaluated after 13 days; for pest or weed control at 15.625 g/ha: 15.625 g ai/ha; for pest or weed control at 15.625 g/ha / pest or weed control at 250 g/ha: read-out: Foxtail, Giant damage rating (100=total damage to plant; 0=no damage to plant); for pest or weed control at 62.5 g/ha: 62.5 g ai/ha, 100=total damage to plant, 0=no damage to plant, read-out: Foxtail, Giant damage rating; for pest or weed control at 250 g/ha: 250 g ai/ha
Outline: as §1

[4] = tested on: ivy-leaved morning glory (Ipomoea hederacea); experiment: Test G Pre-Emergence Protocol; conditions: Ipomoea, pre-emergence, 312 h, evaluated after 13 days; for pest or weed control at 15.625 g/ha: 15.625 g ai/ha; for pest or weed control at 15.625 g/ha / pest or weed control at 250 g/ha: read-out: Morningglory, Ivy-leaved damage rating (100=total damage to plant; 0=no damage to plant); for pest or weed control at 62.5 g/ha: 62.5 g ai/ha, 100=total damage to plant, 0=no damage to plant, read-out: Morningglory, Ivy-leaved damage rating; for pest or weed control at 250 g/ha: 250 g ai/ha
Outline: as §1

[5] = tested on: redroot pigweed (Amaranthus retroflexus); experiment: Test G Pre-Emergence Protocol; conditions: Amaranthus retroflexus, pre-emergence, 312 h, evaluated after 13 days; for pest or weed control at 15.625 g/ha: 15.625 g ai/ha; for pest or weed control at 15.625 g/ha / pest or weed control at 250 g/ha: read-out: Pigweed, Redroot damage rating (100=total damage to plant; 0=no damage to plant); for pest or weed control at 62.5 g/ha: 62.5 g ai/ha, 100=total damage to plant, 0=no damage to plant, read-out: Pigweed, Redroot damage rating; for pest or weed control at 250 g/ha: 250 g ai/ha
Outline: as §1

[6] = tested on: velvetleaf (Abutilon theophrasti); experiment: Test G Pre-Emergence Protocol; conditions: Abutilon theophrasti, pre-emergence, 312 h, evaluated after 13 days; for pest or weed control at 15.625 g/ha: 15.625 g ai/ha; for pest or weed control at 15.625 g/ha / pest or weed control at 250 g/ha: read-out: Velvetleaf damage rating (100=total damage to plant; 0=no damage to plant); for pest or weed control at 62.5 g/ha: 62.5 g ai/ha, 100=total damage to plant, 0=no damage to plant, read-out: Velvetleaf damage rating; for pest or weed control at 250 g/ha: 250 g ai/ha
Outline: as §1

[7] = tested on: barnyardgrass (Echinochloa crus-galli); experiment: Test G Post-Emergence Protocol; conditions: Echinochloa crus-galli, post-emergence, 312 h, read-out: Barnyardgrass damage rating; for pest or weed control at 15.625 g/ha: 15.625 g ai/ha, evaluated after 13 days (100=total damage to plant; 0=no damage to plant); for pest or weed control at 62.5 g/ha: 62.5 g ai/ha; for pest or weed control at 62.5 g/ha / pest or weed control at 250 g/ha: evaluated after 13 days, 100=total damage to plant, 0=no damage to plant; for pest or weed control at 250 g/ha: 250 g ai/ha
Outline: (§2)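 Values are percent visual injury at 13 days after treatment (0 none, 100 total). Treatment was a post-emergence spray at 15.625, 62.5 or 250 g/ha on 8-day-old pot plants kept at 24/16 °C.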

corn (Zea mays) [8] = experiment: Test G Post-Emergence Protocol; conditions: Zea mays, post-emergence, 312 h, read-out: Corn damage rating; for plant injury at 15.625 g/ha: 15.625 g ai/ha, evaluated after 13 days (100=total damage to plant; 0=no damage to plant); for plant injury at 62.5 g/ha: 62.5 g ai/ha; for plant injury at 62.5 g/ha / plant injury at 250 g/ha: evaluated after 13 days, 100=total damage to plant, 0=no damage to plant; for plant injury at 250 g/ha: 250 g ai/ha
Outline: as §2

[9] = tested on: giant foxtail (Setaria faberi); experiment: Test G Post-Emergence Protocol; conditions: Setaria faberi, post-emergence, 312 h, read-out: Foxtail, Giant damage rating; for pest or weed control at 15.625 g/ha: 15.625 g ai/ha, evaluated after 13 days (100=total damage to plant; 0=no damage to plant); for pest or weed control at 62.5 g/ha: 62.5 g ai/ha; for pest or weed control at 62.5 g/ha / pest or weed control at 250 g/ha: evaluated after 13 days, 100=total damage to plant, 0=no damage to plant; for pest or weed control at 250 g/ha: 250 g ai/ha
Outline: as §2

[10] = tested on: ivy-leaved morning glory (Ipomoea hederacea); experiment: Test G Post-Emergence Protocol; conditions: Ipomoea, post-emergence, 312 h, read-out: Morningglory, Ivy-leaved damage rating; for pest or weed control at 15.625 g/ha: 15.625 g ai/ha, evaluated after 13 days (100=total damage to plant; 0=no damage to plant); for pest or weed control at 62.5 g/ha: 62.5 g ai/ha; for pest or weed control at 62.5 g/ha / pest or weed control at 250 g/ha: evaluated after 13 days, 100=total damage to plant, 0=no damage to plant; for pest or weed control at 250 g/ha: 250 g ai/ha
Outline: as §2

[11] = tested on: redroot pigweed (Amaranthus retroflexus); experiment: Test G Post-Emergence Protocol; conditions: Amaranthus retroflexus, post-emergence, 312 h, read-out: Pigweed, Redroot damage rating; for pest or weed control at 15.625 g/ha: 15.625 g ai/ha, evaluated after 13 days (100=total damage to plant; 0=no damage to plant); for pest or weed control at 62.5 g/ha: 62.5 g ai/ha; for pest or weed control at 62.5 g/ha / pest or weed control at 250 g/ha: evaluated after 13 days, 100=total damage to plant, 0=no damage to plant; for pest or weed control at 250 g/ha: 250 g ai/ha
Outline: as §2

[12] = tested on: velvetleaf (Abutilon theophrasti); experiment: Test G Post-Emergence Protocol; conditions: Abutilon theophrasti, post-emergence, 312 h, read-out: Velvetleaf damage rating; for pest or weed control at 15.625 g/ha: 15.625 g ai/ha, evaluated after 13 days (100=total damage to plant; 0=no damage to plant); for pest or weed control at 62.5 g/ha: 62.5 g ai/ha; for pest or weed control at 62.5 g/ha / pest or weed control at 250 g/ha: evaluated after 13 days, 100=total damage to plant, 0=no damage to plant; for pest or weed control at 250 g/ha: 250 g ai/ha
Outline: as §2

SMILES	pest or weed control at 15.625 g/ha [1]	pest or weed control at 62.5 g/ha [1]	pest or weed control at 250 g/ha [1]	plant injury at 15.625 g/ha (corn (Zea mays) [2])	plant injury at 62.5 g/ha (corn (Zea mays) [2])	plant injury at 250 g/ha (corn (Zea mays) [2])	pest or weed control at 15.625 g/ha [3]	pest or weed control at 62.5 g/ha [3]	pest or weed control at 250 g/ha [3]	pest or weed control at 15.625 g/ha [4]	pest or weed control at 62.5 g/ha [4]	pest or weed control at 250 g/ha [4]	pest or weed control at 15.625 g/ha [5]	pest or weed control at 62.5 g/ha [5]	pest or weed control at 250 g/ha [5]	pest or weed control at 15.625 g/ha [6]	pest or weed control at 62.5 g/ha [6]	pest or weed control at 250 g/ha [6]	pest or weed control at 15.625 g/ha [7]	pest or weed control at 62.5 g/ha [7]	also measured
Cc1cc([C@H]2CN(C)C(=O)[C@@H]2C(=O)Nc2cccc(F)n2)cc(C(F)(F)F)c1 (racemic) [Compound 1801]	40%	80%	90%	10%	40%	80%	80%	90%	90%	0%	0%	40%	0%	20%	40%	0%	10%	20%	20%	60%	pest or weed control at 250 g/ha [7]: 70%; plant injury at 15.625 g/ha (corn (Zea mays) [8]): 10%; plant injury at 62.5 g/ha (corn (Zea mays) [8]): 70%; plant injury at 250 g/ha (corn (Zea mays) [8]): 80%; pest or weed control at 15.625 g/ha [9]: 70%; pest or weed control at 62.5 g/ha [9]: 80%; pest or weed control at 250 g/ha [9]: 80%; pest or weed control at 15.625 g/ha [10]: 0%; pest or weed control at 62.5 g/ha [10]: 10%; pest or weed control at 250 g/ha [10]: 50%; pest or weed control at 15.625 g/ha [11]: 0%; pest or weed control at 62.5 g/ha [11]: 0%; pest or weed control at 250 g/ha [11]: 40%; pest or weed control at 15.625 g/ha [12]: 0%; pest or weed control at 62.5 g/ha [12]: 0%; pest or weed control at 250 g/ha [12]: 0%
Cc1c(F)cccc1NC(=O)[C@@H]1C(=O)N(C)C[C@H]1c1ccnc(OCC(F)(F)F)c1 (racemic) [Compound 1802]	10%	70%	90%	0%	0%	70%	70%	90%	90%	0%	0%	40%	0%	10%	30%	0%	20%	70%	0%	60%	pest or weed control at 250 g/ha [7]: 70%; plant injury at 15.625 g/ha (corn (Zea mays) [8]): 0%; plant injury at 62.5 g/ha (corn (Zea mays) [8]): 0%; plant injury at 250 g/ha (corn (Zea mays) [8]): 60%; pest or weed control at 15.625 g/ha [9]: 40%; pest or weed control at 62.5 g/ha [9]: 70%; pest or weed control at 250 g/ha [9]: 80%; pest or weed control at 15.625 g/ha [10]: 0%; pest or weed control at 62.5 g/ha [10]: 0%; pest or weed control at 250 g/ha [10]: 0%; pest or weed control at 15.625 g/ha [11]: 0%; pest or weed control at 62.5 g/ha [11]: 0%; pest or weed control at 250 g/ha [11]: 40%; pest or weed control at 15.625 g/ha [12]: 0%; pest or weed control at 62.5 g/ha [12]: 40%; pest or weed control at 250 g/ha [12]: 70%
